# Molecular target: Receptor tyrosine-protein kinase erbB-2 (Homo sapiens, UniProt P04626)
# Assay: Inhibition of HER2
# Settings: not given
# Sequence of Receptor tyrosine-protein kinase erbB-2 (P04626 whole entry): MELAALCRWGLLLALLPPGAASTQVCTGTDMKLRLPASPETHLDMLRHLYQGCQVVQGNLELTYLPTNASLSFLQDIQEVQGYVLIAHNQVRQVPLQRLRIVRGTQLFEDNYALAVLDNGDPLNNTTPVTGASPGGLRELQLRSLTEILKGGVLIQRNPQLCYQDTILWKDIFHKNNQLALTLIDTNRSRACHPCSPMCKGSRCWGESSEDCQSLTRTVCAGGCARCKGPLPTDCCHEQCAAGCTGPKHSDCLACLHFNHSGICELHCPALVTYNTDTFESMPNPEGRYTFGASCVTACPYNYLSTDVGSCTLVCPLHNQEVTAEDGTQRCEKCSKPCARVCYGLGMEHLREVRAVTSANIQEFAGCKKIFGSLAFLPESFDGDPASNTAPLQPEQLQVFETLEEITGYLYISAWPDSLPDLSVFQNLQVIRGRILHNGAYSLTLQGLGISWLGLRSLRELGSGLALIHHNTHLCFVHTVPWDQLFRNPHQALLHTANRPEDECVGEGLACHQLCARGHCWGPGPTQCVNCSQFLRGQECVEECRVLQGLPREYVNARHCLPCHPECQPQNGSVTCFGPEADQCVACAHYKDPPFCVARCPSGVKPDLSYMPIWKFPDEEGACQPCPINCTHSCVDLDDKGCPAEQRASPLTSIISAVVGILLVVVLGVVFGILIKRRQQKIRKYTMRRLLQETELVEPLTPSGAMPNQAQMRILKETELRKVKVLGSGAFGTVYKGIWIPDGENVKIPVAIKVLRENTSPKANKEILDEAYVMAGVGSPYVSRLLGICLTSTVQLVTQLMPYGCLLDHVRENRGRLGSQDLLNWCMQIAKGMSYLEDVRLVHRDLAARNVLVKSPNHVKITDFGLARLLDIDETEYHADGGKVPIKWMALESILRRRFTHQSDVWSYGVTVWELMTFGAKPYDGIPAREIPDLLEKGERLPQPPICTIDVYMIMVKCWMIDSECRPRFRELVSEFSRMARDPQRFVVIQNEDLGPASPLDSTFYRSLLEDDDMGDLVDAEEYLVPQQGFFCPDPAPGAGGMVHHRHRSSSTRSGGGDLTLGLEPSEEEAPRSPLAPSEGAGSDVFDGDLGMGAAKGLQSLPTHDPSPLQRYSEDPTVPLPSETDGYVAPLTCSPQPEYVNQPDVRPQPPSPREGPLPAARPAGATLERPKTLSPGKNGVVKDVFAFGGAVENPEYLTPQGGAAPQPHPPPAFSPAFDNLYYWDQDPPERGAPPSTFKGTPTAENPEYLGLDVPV
row,SMILES,IC50 [µM]
1,CCCCn1c(S(=O)(=O)c2cc(OC)c(OC)c(OC)c2)nc2c(N)ncnc21,310
2,COc1cc2nccc(Nc3ccc(N4C(=O)c5ccc(Cl)cc5C4=O)c(C)c3)c2cc1OC,1.7
3,c1ccc(Oc2ccc(Nc3ccnc4ccccc34)cc2)cc1,0.733
4,CS(=O)(=O)CCNCc1nc(-c2ccc3ncnc(Nc4ccc(OCc5cccc(F)c5)c(Cl)c4)c3c2)cs1,0.01
5,CONC(=O)c1ccc(F)c(Nc2ncnn3cc(NC(=O)OCCCS(C)(=O)=O)c(C(C)C)c23)c1,5.3
6,COCOCC#CC(=O)Nc1ccc2ncnc(Nc3cccc(Br)c3)c2c1,0.009
7,Cc1cc2nc(CBr)c(-c3ccccc3)nc2cc1C,21
8,Nc1ncnc2nc(Sc3cc(Cl)ccc3Cl)[nH]c12,120
9,COCC(=O)NC/C=C/c1ccc2ncnc(Nc3ccc(Oc4ccc(C)nc4)c(C)c3)c2c1 [CP-724714],0.012

# System: SK-BR-3
# Assay: Cytotoxicity against human SKBR3 cells at 10 uM after 72 hrs by MTT assay
# Assay type: functional
# Settings: not given
row,SMILES,Activity [%]
1,Cc1sc(NC(=O)CSc2ncnc3sc4c(c23)CCCC4)c(C#N)c1C,26
2,Cc1ccc2[nH]c(=O)c(CN(Cc3cccs3)C(=O)c3ccco3)cc2c1,22
3,Cc1ccc(-c2csc3ncnc(SCC(=O)Nc4nc(-c5ccccc5)cs4)c23)cc1,33
4,O=C(Nc1ncnc2sc3c(c12)CCC3)c1cccs1,20
5,COc1cc(OCC(=O)Nc2cccc([N+](=O)[O-])c2)ccc1/C=N/Nc1ncnc2sc3c(c12)CCCC3,7
6,CCOc1ccc(Nc2nc(NCCO)nc(C)c2[N+](=O)[O-])cc1,32
7,CCOc1ccc(Nc2c3c(nc4ncnn24)CCC3)cc1,26
8,Cc1ccc2[nH]cc(CCNC(=O)c3cccnc3)c2c1,1
9,O=C(CSc1ncnc2sc3c(c12)CCC3)Nc1ccc(S(=O)(=O)N2CCOCC2)cc1,12
10,COc1ccc(CCNc2c(Cc3ccccc3)c(C)nc3ncnn23)cc1OC,21
11,CCC(C)(C)C1CCc2sc3ncnc(N/N=C(\C)c4ccc(OC)cc4)c3c2C1 (stereo unspecified),12
12,CC1CCc2c(sc3ncnc(NCc4ccco4)c23)C1 (stereo unspecified),2
13,COc1ccc(NC(=O)Cn2nnc(-c3ccccc3NC(=O)c3cccs3)n2)cc1,27
14,Cc1cc(O)nc(SCC(=O)Nc2ccc(C(=O)NC3CCCCC3)cc2)n1,21
15,O=C(Nc1cccc(NC(=O)c2ccc(Cl)cc2Cl)c1)c1cccnc1,2
16,CCn1nnnc1SCC(=O)Nc1ccc(OCc2ccccc2)cc1,19
17,CCc1ccccc1NC(=O)NCCCNc1nc2cc(C)cc(C)c2cc1C#N,29
18,O=C(NC1CCCC1)C(c1cccs1)N(C(=O)Cc1cccs1)c1ccc2c(c1)OCCO2 (stereo unspecified),16
19,O=C(Nc1ccc(Oc2ccc3nsnc3c2)c(Cl)c1)c1cc(Cl)ccc1O,30
20,COc1ccc(-c2nc3cc(NC(=O)COc4ccc(C)cc4C)ccc3o2)cc1Br,32
21,Cc1cc(Nc2ccc(N3CCC(C)CC3)cc2)n2ncnc2n1,25
22,COc1ccc2[nH]c(=O)c(CN(CCc3cccc(C)c3)C(C)=O)cc2c1,5
23,Clc1cc(Nc2c3ccccc3nc3ccccc23)ccc1Oc1ccc2ccccc2c1Br,3

row,SMILES,Activity [%]
1,COc1cccc(-c2cc3cc4c(c(NCc5cc(OC)c(OC)c(OC)c5)n3n2)CCC4)c1,4
2,COc1ccc(CN(CC(=O)NC2CCCC2)C(=O)Cn2cnc3sc(C)c(C)c3c2=O)cc1,21
3,O=C(CSc1ncnc2sc3c(c12)CCCC3)NCc1cccc2c1OCO2,16
4,CCOC(=O)c1ccc(Nc2cc(C)nc3ncnn23)cc1,1
5,Cc1ccc(S(=O)(=O)N(Cc2ccc3c(c2)OCO3)Cc2cc3ccc(C)c(C)c3[nH]c2=O)cc1,12
6,c1ccc2c(NCCCNc3ncnc4ccccc34)ncnc2c1,32
7,O=C(CSc1ncnc2sc3c(c12)CCCC3)Nc1ccc(S(=O)(=O)N2CCCCCC2)cc1,11
8,CCOc1ccc(OCC)c(NC(=O)CSc2nc3c(C)cccc3cc2C#N)c1,16
9,O=[N+]([O-])c1ccccc1-c1nnc(CSc2ncnc3sc4c(c23)CCCC4)o1,7
10,O=C(CSc1ncnc2sc3c(c12)CCCC3)Nc1nc(-c2ccc(F)cc2)cs1,32
11,COc1cc(CNCc2cccnc2)ccc1OCc1ccccc1Cl,1
12,COc1cccc(OC)c1C(=O)Nc1ccc2c(c1)OCC(=O)N2Cc1ccccc1Cl,2
13,Cc1nn(-c2ccccc2)c2sc(C(=O)N(CC(=O)NC3CCCC3)C3CC3)cc12,22
14,O=C(CSc1ncnc2sc3c(c12)CCCC3)Nc1nc(-c2ccccc2)cs1,34
15,Cc1cc2cc(CN(Cc3cccs3)C(=O)Nc3ccccc3F)c(=O)[nH]c2cc1C,19
16,COC(=O)c1sc(NC(=O)CSc2nc(C3CC3)nc3sc4c(c23)CCCC4)nc1C,31
17,CCOC(=O)c1c(-c2ccccc2)csc1NC(=O)CSc1ncnc2sc3c(c12)CCCC3,11
18,c1cncc(CNc2ncnc3ccccc23)c1,15
19,CCOC(=O)c1ccc(Nc2c([N+](=O)[O-])c(=O)oc3ccccc23)cc1,5
20,COc1cc(NC(=O)CSc2nnnn2-c2ccc3c(c2)OCCO3)cc(OC)c1,15
21,COc1cc(/C=N/Nc2ncnc3sc4c(c23)CCCC4)ccc1OCC(=O)Nc1ccccc1,32
22,Cc1nc2cc(NCc3ccccc3O)ccc2n1Cc1ccccc1,13

# System: SK-BR-3
# Assay: Cytotoxicity against human SKBr3 cells after 72 hrs by MTT assay
# Assay type: functional, cell-based
# Settings: SK-BR-3, 72 h
row,SMILES,IC50 [µM]
1,CCN(CC)CCNc1ccc(Nc2ccnc3cc4ccccc4cc23)cc1,2
2,c1ccc(CCNc2ccnc3cc4ccccc4cc23)cc1,8
3,COc1ccc(CCNc2cc(-c3ccccc3)nc3ncnn23)cc1,9
4,Fc1ccccc1CCNc1c2c(nc3ncnn13)CCCC2,14
5,c1ccc(OCCOc2ccc(Nc3ccnc4cc5ccccc5cc34)cc2)cc1,2
6,CCc1cc2c(NCCc3ccc(OC)c(OC)c3)ncnc2s1,14
7,CN1CCN(CCCNc2ccnc3cc4ccccc4cc23)CC1,15
8,CN1CCN(c2ccc(Nc3ncnc4sc5c(c34)CCCC5)cc2)CC1,9
9,COc1ccc2nc(C)cc(Nc3ccc(Oc4ccc5ccccc5c4)c(Cl)c3)c2c1,5
10,CCN(CC)c1ccc(NC(=O)CSc2ncnc3sc(C)c(C)c23)cc1C,16
11,Brc1ccc2ncnc(NCCc3ccccc3)c2c1,15
12,COc1ccc2nc(C)cc(Nc3ccc(Oc4ccc(Cl)cc4)c(Cl)c3)c2c1,5

# Reference: ChEMBL document CHEMBL1150417, “Discovery of novel small-molecule inhibitors of human epidermal growth factor receptor-2: combined ligand and target-based approach” (J Med Chem, 2008)
